Key:
barnyardgrass [1] = experiment: Test D flooded paddy test; assay type: in vivo, Echinochloa crus-galli; conditions: 250 g ai/ha, applied to paddy water, visual rating after 13 to 14 days, scale 0 to 100 (0 no effect, 100 complete control)
Procedure, shortened: (§1)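 Plants grown to the 2-leaf stage; pots flooded to 3 cm above soil at treatment and held at that depth throughout. Test compounds applied directly to the paddy water. After 13 to 14 days in a greenhouse, response was rated visually versus controls on a 0 (no effect) to 100 (complete control) scale.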

rice = experiment: Test D flooded paddy test; assay type: in vivo, Oryza sativa; conditions: 250 g ai/ha, applied to paddy water, visual rating after 13 to 14 days, scale 0 to 100 (0 no effect, 100 complete control)
Procedure, shortened: as §1

wheat [2] = experiment: Test C preemergence; assay type: in vivo, Triticum aestivum
Procedure, shortened: (§2)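 Pre: seeds in loam/sand, directed soil spray. Post: 1–2 leaf plants, 2–10 cm. Cmpd in non-phytotoxic solvent + surfactant. Greenhouse 10 d; visual rating vs untreated, 0 = none, 100 = complete control.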

ryegrass, Italian [3] = experiment: Test C postemergence; assay type: in vivo, Lolium multiflorum; conditions: 10 days, 0 to 100 scale (0 no effect, 100 complete control)
Procedure, shortened: as §2

galium = experiment: Test C postemergence; assay type: in vivo, Galium aparine; conditions: 10 days, 0 to 100 scale (0 no effect, 100 complete control)
Procedure, shortened: as §2

green foxtail [4] = experiment: Test C preemergence; assay type: in vivo, Setaria viridis
Procedure, shortened: as §2

kochia [5] = experiment: Test C preemergence; assay type: in vivo, Bassia scoparia
Procedure, shortened: as §2

pigweed, palmer [6] = experiment: Test C postemergence; assay type: in vivo, Amaranthus palmeri; conditions: 10 days, 0 to 100 scale (0 no effect, 100 complete control)
Procedure, shortened: as §2

ducksalad = experiment: Test D flooded paddy test; assay type: in vivo, Heteranthera limosa; conditions: 250 g ai/ha, applied to paddy water, visual rating after 13 to 14 days, scale 0 to 100 (0 no effect, 100 complete control)
Procedure, shortened: as §1

horseweed = experiment: Test C postemergence; assay type: in vivo, Erigeron canadensis; conditions: 10 days, 0 to 100 scale (0 no effect, 100 complete control)
Procedure, shortened: as §2

oat, wild [7] = experiment: Test C preemergence; assay type: in vivo, Avena fatua
Procedure, shortened: as §2

kochia [8] = experiment: Test C postemergence; assay type: in vivo, Bassia scoparia; conditions: 10 days, 0 to 100 scale (0 no effect, 100 complete control)
Procedure, shortened: as §2

barnyardgrass [9] = experiment: Test C preemergence; assay type: in vivo, Echinochloa crusgalli
Procedure, shortened: as §2

wheat [10] = experiment: Test C postemergence; assay type: in vivo, Triticum aestivum; conditions: 10 days, 0 to 100 scale (0 no effect, 100 complete control)
Procedure, shortened: as §2

ryegrass, Italian [11] = experiment: Test C preemergence; assay type: in vivo, Lolium multiflorum
Procedure, shortened: as §2

ragweed [12] = experiment: Test C postemergence; assay type: in vivo, Ambrosia artemisiifolia; conditions: 10 days, 0 to 100 scale (0 no effect, 100 complete control)
Procedure, shortened: as §2

blackgrass [13] = experiment: Test C preemergence; assay type: in vivo, Alopecurus myosuroides
Procedure, shortened: as §2

oat, wild [14] = experiment: Test C postemergence; assay type: in vivo, Avena fatua; conditions: 10 days, 0 to 100 scale (0 no effect, 100 complete control)
Procedure, shortened: as §2

corn [15] = experiment: Test C preemergence; assay type: in vivo, Zea mays
Procedure, shortened: as §2

corn [16] = experiment: Test C postemergence; assay type: in vivo, Zea mays; conditions: 10 days, 0 to 100 scale (0 no effect, 100 complete control)
Procedure, shortened: as §2

blackgrass [17] = experiment: Test C postemergence; assay type: in vivo, Alopecurus myosuroides; conditions: 10 days, 0 to 100 scale (0 no effect, 100 complete control)
Procedure, shortened: as §2

sedge, umbrella = experiment: Test D flooded paddy test; assay type: in vivo, Cyperus difformis; conditions: 250 g ai/ha, applied to paddy water, visual rating after 13 to 14 days, scale 0 to 100 (0 no effect, 100 complete control)
Procedure, shortened: as §1

ragweed [18] = experiment: Test C preemergence; assay type: in vivo, Ambrosia artemisiifolia
Procedure, shortened: as §2

pigweed, palmer [19] = experiment: Test C preemergence; assay type: in vivo, Amaranthus palmeri
Procedure, shortened: as §2

soybean [20] = experiment: Test C postemergence; assay type: in vivo, Glycine max; conditions: 10 days, 0 to 100 scale (0 no effect, 100 complete control)
Procedure, shortened: as §2

barnyardgrass [21] = experiment: Test C postemergence; assay type: in vivo, Echinochloa crusgalli; conditions: 10 days, 0 to 100 scale (0 no effect, 100 complete control)
Procedure, shortened: as §2

green foxtail [22] = experiment: Test C postemergence; assay type: in vivo, Setaria viridis; conditions: 10 days, 0 to 100 scale (0 no effect, 100 complete control)
Procedure, shortened: as §2

soybean [23] = experiment: Test C preemergence; assay type: in vivo, Glycine max
Procedure, shortened: as §2

[24] = 500 g ai/ha, preemergence, 0 to 100 scale (0 no effect, 100 complete control)
[25] = Preemergence, 125 g ai/ha, 0 to 100 scale, 0 no effect, 100 complete control

Q: What does the source list for `COCc1ncn(-c2ccc(C)c(C(=O)N3C[C@H](C)Oc4c(Cl)cccc43)c2)n1` [Compound 357]?
A: Plant response rating, Barnyardgrass (Flood) (barnyardgrass [1]): 10; Plant response rating, Rice (Flood) (rice): 0; Wheat plant response rating (wheat [2]; [24]): 70; Plant response rating, Wheat (wheat [2]; [25]): 0; Plant response rating, Ryegrass, Italian (ryegrass, Italian [3]; 500 g ai/ha, postemergence): 100; Plant response rating, Ryegrass, Italian (ryegrass, Italian [3]; Postemergence, 125 g ai/ha): 50; Plant response rating, Galium (galium; 500 g ai/ha, postemergence): 100; Plant response rating, Galium (galium; Postemergence, 125 g ai/ha): 100; Foxtail, Green plant response rating (green foxtail [4]; [24]): 100; Plant response rating, Foxtail, Green (green foxtail [4]; [25]): 100; Kochia plant response rating (kochia [5]; [24]): 90; Plant response rating, Kochia (kochia [5]; [25]): 50; Plant response rating, Pigweed, Palmer (pigweed, palmer [6]; 500 g ai/ha, postemergence): 100; Plant response rating, Pigweed, Palmer (pigweed, palmer [6]; Postemergence, 125 g ai/ha): 50; Plant response rating, Ducksalad (Flood) (ducksalad): 45; Plant response rating, Horseweed (horseweed; 500 g ai/ha, postemergence): 80; Plant response rating, Horseweed (horseweed; Postemergence, 125 g ai/ha): 60; Oat, Wild plant response rating (oat, wild [7]; [24]): 90; Plant response rating, Oat, Wild (oat, wild [7]; [25]): 60; Plant response rating, Kochia (kochia [8]; 500 g ai/ha, postemergence): 70; Plant response rating, Kochia (kochia [8]; Postemergence, 125 g ai/ha): 50; Barnyardgrass plant response rating (barnyardgrass [9]; [24]): 100; Plant response rating, Barnyardgrass (barnyardgrass [9]; [25]): 80; Plant response rating, Wheat (wheat [10]; 500 g ai/ha, postemergence): 80; Plant response rating, Wheat (wheat [10]; Postemergence, 125 g ai/ha): 20; Ryegrass, Italian plant response rating (ryegrass, Italian [11]; [24]): 100; Plant response rating, Ryegrass, Italian (ryegrass, Italian [11]; [25]): 100; Plant response rating, Ragweed (ragweed [12]; 500 g ai/ha, postemergence): 60; Plant response rating, Ragweed (ragweed [12]; Postemergence, 125 g ai/ha): 20; Blackgrass plant response rating (blackgrass [13]; [24]): 100; Plant response rating, Blackgrass (blackgrass [13]; [25]): 80; Plant response rating, Oat, Wild (oat, wild [14]; 500 g ai/ha, postemergence): 90; Plant response rating, Oat, Wild (oat, wild [14]; Postemergence, 125 g ai/ha): 30; Corn plant response rating (corn [15]; [24]): 20; Plant response rating, Corn (corn [15]; [25]): 10; Plant response rating, Corn (corn [16]; 500 g ai/ha, postemergence): 80; Plant response rating, Corn (corn [16]; Postemergence, 125 g ai/ha): 40; Plant response rating, Blackgrass (blackgrass [17]; 500 g ai/ha, postemergence): 100; Plant response rating, Blackgrass (blackgrass [17]; Postemergence, 125 g ai/ha): 90; Plant response rating, Sedge, Umbrella (Flood) (sedge, umbrella): 90; Ragweed plant response rating (ragweed [18]; [24]): 60; Plant response rating, Ragweed (ragweed [18]; [25]): 10; Pigweed, Palmer plant response rating (pigweed, palmer [19]; [24]): 100; Plant response rating, Pigweed, Palmer (pigweed, palmer [19]; [25]): 90; Plant response rating, Soybean (soybean [20]; 500 g ai/ha, postemergence): 100; Plant response rating, Soybean (soybean [20]; Postemergence, 125 g ai/ha): 100; Plant response rating, Barnyardgrass (barnyardgrass [21]; 500 g ai/ha, postemergence): 100; Plant response rating, Barnyardgrass (barnyardgrass [21]; Postemergence, 125 g ai/ha): 50; Plant response rating, Foxtail, Green (green foxtail [22]; 500 g ai/ha, postemergence): 90; Plant response rating, Foxtail, Green (green foxtail [22]; Postemergence, 125 g ai/ha): 30; Soybean plant response rating (soybean [23]; [24]): 100; Plant response rating, Soybean (soybean [23]; [25]): 100

Source: patent publication US20260262643A1, “HERBICIDAL BENZOXAZINES” (FMC CORPORATION, priority 2022, published 2026)
